Reference: patent US10933135B2, “Methods for the treatment of cardiac hypertrophy” (UNIVERSITY OF CINCINNATI, priority 2016, dated 2021)
Where “and” joins values, the source holds several entries; their conditions need not be identical. Identical values can stand only once. Entries after “also recorded” stand apart in the source; their conditions may differ. One block for each compound: values may come before it.

What was measured:
[1] = biological target: HuR-RNA binding (Homo sapiens, UniProt Q15717); experiment: Plasmonic nanoparticle LSPR assay of HuR-RNA binding; conditions: gold nanoparticle arrays, target RNA SEQ ID NO 7, recombinant HuR protein
Sequence of HuR-RNA binding (Q15717 whole entry): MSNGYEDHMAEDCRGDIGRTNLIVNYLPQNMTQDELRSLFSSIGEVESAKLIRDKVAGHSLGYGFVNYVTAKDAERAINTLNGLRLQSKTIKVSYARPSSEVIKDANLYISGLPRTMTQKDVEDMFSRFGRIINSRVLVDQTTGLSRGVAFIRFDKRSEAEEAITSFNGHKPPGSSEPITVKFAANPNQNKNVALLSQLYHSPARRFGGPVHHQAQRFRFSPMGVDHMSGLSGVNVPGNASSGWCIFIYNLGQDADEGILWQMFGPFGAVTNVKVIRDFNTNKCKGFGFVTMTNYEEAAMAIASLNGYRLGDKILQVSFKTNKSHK
Experimental: As shown schematically in FIG. 9A-B, a pattern for either microfluidic channels or a spot plate is first made on the substrate using photolithography. Next, the hole mask procedure is carried out on top of the patterned photoresist to make the desired nanoparticle array. Briefly, this procedure involves spin coating a layer of poly(methylmethacrylate) (PMMA) followed by a layer of poly(diallyldimethylammonium chloride) (PDDA). Next, polystyrene spheres of a desired size are drop-coated onto the top of the polymer layers and a layer of 5 nm of gold is deposited over the whole assembly. After removal of the polystyrene spheres by tape-stripping, the masks are subjected to oxygen plasma etching to generate holes the same size as the polystyrene spheres. Metals are then deposited into these holes and in the last step, both the PMMA/PDDA polymer mask and the photoresist are removed using acetone, to create nanoparticle arrays in a desired pattern on the substrate. […] The PDMS layer was used to create the channels for the microfluidic devices and to prevent solution migration from spot to spot in the spot plates.
Next a target RNA strand containing a DNA hybridizing region, which binds via base pair matching with the ssDNA on the nanoparticle, and a hairpin loop containing a HuR target binding site. […] Last, the HuR protein is added and binds to its target site within the RNA hairpin loop. […]

[2] = test system: NFAT; experiment: NFAT-luciferase reporter assay in NRVMs; assay type: cell-based, rat; conditions: for effect on basal NFAT activity: inhibitor at its IC50, without PE; for NFAT reporter activity, fold vs. vehicle control: 24 hours
Experimental: NRVMs were transfected with 75 ng per well (in a 96-well plate) of NFAT-luciferase reporter plasmid acquired from AddGene (51941) (B. J. Wilkins et al., Calcineurin/NFAT coupling participates in pathological, but not physiological, cardiac hypertrophy, Circ. Res. 94 (2004) 110-118. doi:10.1161/01.RES.0000109415.17511.18, the entire disclosure of which is incorporated herein by this citation). 48 hours after transfection, cells were treated with 10 μM PE for 24 hours to induce NFAT reporter activity. To quantify luciferase reporter expression, cells were rinsed with sterile PBS and then lysed with 50 μL Cell Lysis Buffer (Promega) for 5 min at room temperature, followed by addition of 100 μL luciferase assay reagent (Promega); luminescence was read immediately on the BioTek Cytation 3 image reader. HuR inhibitors were previously identified by Wu et. al. (X. Wu et al., Identification and Validation of Novel Small Molecule Disruptors of HuR-mRNA Interaction, ACS Chem. Biol. (2015) 150317154550000-9. doi:10.1021/cb500851u. the entire disclosure of which is incorporated herein by this citation), and used here as described.

[3] = test system: pressure overload (aortic constriction) mouse model of heart failure; experiment: Aortic constriction (TAC) pressure overload mouse model of cardiac hypertrophy and heart failure; assay type: in vivo; conditions: TAC mice
Experimental: FIG. 7A-C. KH-3 reduces ventricular dilation and improves ejection fraction in a pressure overload (aortic constriction) mouse model of heart failure. Mice (N=10) were subjected to aortic constriction (TAC) to induce cardiac hypertrophy and heart failure. After week 4, they were randomized to receive either KH-3 (50 mg/kg 3×/week) or Vehicle (5 mice to each group). KH-3 is a small molecule inhibitor of HuR-mRNA interaction that is available from.
FIG. 8A-C. KH-3 reduces ventricular dilation and improves ejection fraction in a pressure overload (aortic constriction) mouse model of heart failure.

[4] = test system: ANF; experiment: ANF (hypertrophic marker gene) expression by qRT-PCR in NRVMs; assay type: cell-based, rat; conditions: vehicle+PE, 24 hr
Experimental: (§1) RNA was isolated using a Macherey-Nagel NucleoSpin RNA kit and cDNA was synthesized using a BioScript All-in-One cDNA Synthesis SuperMix (Biotool). Samples were run on Stratagene Mx3005P (Agilent Technologies) using SYBR Green qPCR Master Mix (Biotool) to assess levels of GAPDH, ANF (atrial natriuretic factor), and RCAN1 (Regulator of Calcineurin 1). Results were analyzed using the ΔΔCt method (K. J. Livak, T. D. Schmittgen, Analysis of relative gene expression data using real-time quantitative PCR and the 2(-Delta Delta C(T)) Method, Methods. 25 (2001) 402-408. doi:10.1006/meth.2001.1262, the entire disclosure of which is incorporated herein by this citation). Primers are as listed: […]

[5] = test system: HuR; experiment: HuR nucleo-cytoplasmic translocation by immunostaining in NRVMs; assay type: cell-based, rat; conditions: for HuR cytoplasmic translocation, fluorescent intensity ratio: agonist alone (PE 10 μM or AngII 100 nM), within 15 minutes (printed 15 hr)
Excerpt: All antibodies were made up in 0.6% BSA in PBS. For wheat germ agglutinin (WGA) staining, a Texas Red-X conjugate was used per manufacturer's instructions (ThermoFisher). […]

[6] = test system: RCAN1; experiment: Expression of the NFAT target gene RCAN1 by qRT-PCR in NRVMs; assay type: cell-based, rat; conditions: PE treated
Experimental: as §1

[7] = test system: neonatal rat ventricular myocytes (NRVMs); experiment: Hypertrophic cell growth of NRVMs, cell area by WGA staining; assay type: cell-based; conditions: 10 μM PE for 24 hr, vs vehicle treated control cells
Excerpt: Neonatal rat ventricular myocytes (NRVMs) were isolated using collagenase digestion and adhesion differential from fibroblasts as described ([…]. Moore-Morris, S. Lange, Isolation and culture of neonatal mouse cardiomyocytes, J Vis Exp. (2013) e50154-e50154. doi:10.3791/50154, the entire disclosure of which is incorporated herein by this citation). Briefly, Sprague Dawley neonatal rats (1-2 days old) (Taconic) were decapitated and the hearts were isolated. Following removal of the atria, the ventricles were cut into small pieces and digested first in 0.05% trypsin/EDTA (Corning) overnight, then in collagenase II (Gibco) for 30 minutes. Cells were then spun at 100×g followed by a 40 minute pre-plating process on non-treated plates to allow the fibroblasts to adhere. The non-adherent NRVMs were then transferred to cell culture-treated dishes in MEM alpha media (Gibco) with 10% FBS. […] All slides were imaged with the BioTek Cytation 3 image reader and quantitative assessment of HuR translocation was measured as the ratio of cytoplasmic to nuclear fluorescent intensity (adjusted for mean background fluorescence and integrated area) using ImageJ.

[8] = test system: PKC; experiment: PKC substrate phosphorylation in NRVMs; assay type: cell-based, rat; conditions: data not shown
[9] = inhibitor at its IC50 simultaneously with PE
[10] = 50 mg/kg 3×/week from week 4, vs Vehicle

leftward LSPR shift (disruption of HuR-RNA binding) [1]: 10 nm
Compound: CCN(CC)C(=O)CC(c1cc(OC)c(OC)c(OC)c1)c1c(OC)cc(OC)c2c(-c3ccccc3)cc(=O)oc12 (centres unmarked) [CMLD-1]
effect on basal NFAT activity [2]: no significant effect
NFAT reporter activity, fold vs. vehicle control [2, 9]: 1.19±0.30 fold

Compound: COc1ccc(C(CC(=O)N2CCCC2)c2c(OC)cc(OC)c3c(-c4ccccc4)cc(=O)oc23)cc1 (centres unmarked) [CMLD-2]
effect on basal NFAT activity [2]: no significant effect
NFAT reporter activity, fold vs. vehicle control [2, 9]: 1.30±0.14 fold

Compound: CC(C)(C)c1ccc(S(=O)(=O)Nc2ccc3sc(/C=C/C(=O)NO)cc3c2)cc1 [KH-3]
cardiac hypertrophy as heart weight to body weight [3]: strong trend toward a reduction in cardiac hypertrophy
cardiac hypertrophy as heart weight to tibia length ratio [3]: strong trend toward a reduction in cardiac hypertrophy
left ventricle (LV) diameter [3, 10]: blunts further increases
left ventricle end diastolic volume (LV-EDV) [3, 10]: preventing further increases
left ventricle end systolic volume (LV-ESV) [3, 10]: preventing further increases
cardiac function as measured by ejection fraction ([3]; pressure overload-induced hypertrophy): strong trend toward improving cardiac function

Compound: CNC[C@H](O)c1cccc(O)c1 [PE, phenylephrine]
ANF expression fold-induction [4]: 5.4±1.4 fold-induction
HuR translocation, ratio of cytoplasmic to total cell fluorescent intensity ([5]; 24 hr PE, vehicle control 0.71±0.04): 1.82±0.08
HuR cytoplasmic translocation, fluorescent intensity ratio ([5]; vehicle control 0.71±0.04): 1.05±0.06
NFAT reporter activity, fold vs. vehicle control ([2]; PE alone 10 μM): 5.02±0.98 fold
RCAN1 expression fold-induction [6]: 4.43±0.77 fold-induction
fold increase in cell area/size [7]: 1.29±0.08 fold and 1.39±0.07 fold

Compound: CCCCCCCCCCCCCC(=O)O[C@@H]1[C@@H](C)[C@@]2(O)[C@@H](C=C(CO)C[C@]3(O)C(=O)C(C)=C[C@@H]23)[C@@H]2C(C)(C)[C@]12OC(C)=O [PMA]
HuR translocation after direct PKC activation ([5]; 2 μM): lack of HuR translocation

Compound: C[S+]([O-])c1ccc(-c2nc(-c3ccncc3)c(-c3ccc(F)cc3)[nH]2)cc1 (centres unmarked) [SB203580]
HuR translocation, fluorescent intensity ratio ([5]; p38 inhibitor (10 μM) + AngII): 0.76±0.07
HuR translocation, fluorescent intensity ratio ([5]; p38 inhibitor (10 μM) + PE, PE alone 1.05±0.06): 0.68±0.08

Compound: COc1ccc2c(c[n+](C)c3c4cc5c(cc4ccc23)OCO5)c1OC [chelerythrine]
effect on PE/AngII-mediated HuR translocation ([5]; PKC inhibitor 10 μM): had no effect on HuR translocation; also recorded: shows a trend to enhance HuR translocation
PKC substrate phosphorylation [8]: a reduction of PKC substrate phosphorylation

Compound: angiotensin II [AngII, angiotensin receptor AT1 agonist]
HuR cytoplasmic translocation, fluorescent intensity ratio ([5]; vehicle control 0.71±0.04): 1.06±0.04
